In patent US12559784B2 (priority 2023, dated 2026):
Several values for one entry are separate records, joined by “and”; a condition that tells them apart may be missing. Identical values can stand only once. Like-named read-outs stand apart in the source and are kept apart here.

Experiments:
[1] = test system: alkaline phosphatase; format: biochemical
Description: New stocks were made the of the 1:100 alkaline phosphatase reaction reagents.
The conditions included: 1:100 dilution of alkaline phosphatase reaction reagent with two solvents (buffered saline and ethanol), dosing in 0.5 mL microcentrifuge tubes with 20 μL of chemical added to 180 μL of reaction reagent, and incubating with p-Nitrophenyl phosphate disodium salt (PNPP) substrate for 1-hour.

[2] = test system: alkaline phosphatase; experiment: Alkaline phosphatase experiment, seventh week: 1:100 vs 1:1000 dilution, room temperature vs 37° C.
Description: Preparation • 1. Alkaline phosphatase reaction reagent • a. 1:100 • i. PBS: Take 400 μL of AP (1:10) stock solution, add to 3.6 mL PBS. Vortex mix and then invert to mix 10 times • ii. […] Vortex mix and then invert to mix 10 times • b. 1:1000 • i. PBS: Take 400 μL of AP (1:100) stock solution, add to 3.6 mL PBS. Vortex mix and then invert to mix 10 times • ii. […] Vortex mix and then invert to mix 10 times • 2. Prepare 0.5 mL microcentrifuge tubes for dosing • a. One set for room temperature, one set for 37° C. • 3. Prepare 96-well plates for PNPP reading (3 wells for each test chemical) • a. Aliquot with 200 μL PNPP Conditions • 1. 1:100 in PBS at RT • 2. […] 1:100 in PBS at 37° C. • 4. […] 1:1000 in PBS at RT • 6. […] 1:1000 in PBS at 37° C. • 8. […] Procedure • 1. In each microcentrifuge tube for each condition, add 180 μL of the corresponding AP reaction reagent • 2. Add 20 μL of the test chemical to each microcentrifuge tube • 3. Incubate for 4 hours (one set at room temperature; one set at 37° C.) • 4. To prepared 96-well plates with 200 μL PNPP aliquoted, add 20 μL of each microcentrifuge tube to the corresponding well • 5.

[3] = test system: alkaline phosphatase; format: biochemical; settings: PBS; 18 hours room temperature, PNPP 1 hour
Source text: Our next study compared different dilutions of the original alkaline phosphatase source (1:10 [Activity: 1,000 units] and 1:100 [100 units]) and two sources of alkaline phosphatase, both purchased from Sigma Aldrich (St. Louis, MO). […] The five conditions for this study included original alkaline phosphatase (1:1), original alkaline phosphatase (1:10), original alkaline phosphatase (1:100), new alkaline phosphatase (1:1), and the blanks (phosphate buffered saline (PBS)). […] The two controls contained ink to determine if there would be any background effect.
Preparation • 1. Alkaline phosphatase reaction reagent • a. Original AP • i. Add 1 mL PBS into AP vial, pipette re-pipette 10 times, then invert with cap on, to mix well. Take this 1 mL and add to 50 mL conical tube filled with 40 mL PBS. Invert to mix 10 times, vortex mix, let sit 2 minutes, invert to mix again 10 times • ii. Prepare 2 more 50 mL conical tubes • 1. 1:10 • a. […] 1:100 • a. Take 4 mL of solution made above, add to 36 mL PBS. […] New AP • i. Add 400 mg into a 50 mL conical tube filled with 40 mL PBS. Invert to mix 10 times, vortex mix, let sit 2 minutes, invert to mix 10 more times. Check to make sure all suspended. If not, vortex mix and invert until fully suspended. • 2. Prepare 24-well plates • 3. […] Aliquot with 200 μL PNPP Conditions • 1. Old AP • 2. Old AP (1:10) • 3. Old AP (1:100) • 4. New AP • 5. Blank (PBS only) Procedure • 1. 24-well plates • a. Add 1 mL (using P1000, blue tips) of the prepared PBS-AP to the plate (for each condition) • b. Add 100 μL of the test material to the well, mix with the same pipette tip, dispose and repeat for the rest of the test materials • c. Wrap the plate in saran wrap and place into the container • d. […] To the prepared 96-well plate with 200 μL PNPP or PBS, add 20 μL from the 24-well plate • 3. Incubate for 1 hour • 4.

[4] = test system: alkaline phosphatase; settings: 30 μL chemical in 300 μL reagent 1:100, 4 hours room temperature, 3 mL PNPP 1 hour
Description: We changed the test chemical dosage to 30 μL and the alkaline phosphatase reaction reagent to 300 μL, but kept the incubation to 4 hours at room temperature.
PBS: Take 4 mL of AP (1:10) stock solution, add to 36 mL PBS. Vortex mix and then invert to mix 10 times • ii. […] Vortex mix and then invert to mix 10 times • b. PBS (lx) • c. […] Prepare 4 mL glass vials for dosing • a. Four sets • i. R1+ (PBS-AP) • ii. R1− (PBS) • iii. […] Prepare 96-well plates for PNPP reading (3 wells for each test chemical) Procedure • 1. Aliquot 300 μL of each reaction reagent to 4 mL glass vials. • 2. Add 30 μL of the test sample to each 4 mL glass vial. • 3. Incubate at room temperature for 4 hours. • 4. Aliquot 3 mL of PNPP to each 4 mL glass vial, let sit for 1 hr. • a. Aliquot 750 μL into the 4 mL glass vial to stop the reaction. • 5.

[5] = test system: skin; settings: cited from earlier work; for in vivo GHS: skin
[6] = test system: alkaline phosphatase; format: biochemical; settings: 3-hour exposure
[7] = test system: porcine skin; settings: fresh porcine skin; 140 μL test chemical; R 1 and 2; >3A = outside readable range
Description: Our initial studies involved using fresh and frozen porcine skin “buttons”. These buttons were punched out of porcine skin (Spear Products, Cooopersburg, PA) using a […] biopsy punch tool. Three different kinds of skin buttons were prepared from fresh porcine skin, frozen porcine skin, and frozen porcine skin with the fatty layer removed. […] The next day, the tubes were taken out and vortexed and 500 μL of the solution was aliquoted into cuvettes to read at three different optical density wavelengths (OD190, OD290, OD300) to evaluate the best response.
Skin Preparation • 1. Thaw 2 pieces of frozen porcine skin • 2. Punch out buttons: 24 buttons in each tube filled with 40 mL PB S-Azide 96-well plate Preparation • 1. Plate layout for dosing:
Procedure • 1. Dose each tissue with 140 μL of test chemical • 2. […] Take out of incubator and vortex pulse 3× • 2. Aliquot 500 μL to cuvette and read results at OD190, OD290, and OD300
There were three readings done at an optical density of 190, 290, and 300 nm to evaluate the best response. […] To address the variable exposure conditions, our next studies involved placing a larger porcine skin section into a holder that exposes only the epidermis side with no potential for test chemical exposure from the backside or through the sides.

[8] = test system: phosphatase; format: biochemical, porcine
Description: Our next studies involved applying the test substance (500 μL) directly to the epidermis side of previously frozen porcine skin (Spear Products, Coopersburg, PA) that is placed in a holder that only exposes the epidermis side for 30 minutes, adding phosphate buffered saline (PBS) with added sodium azide (metabolic inhibitor that ensure no viable tissue), then aliquoting into cuvettes to read at an optical density of 300 nm. […] So, at the end of the initial studies described above, almost out of frustration, we tried to probe for released phosphatase activity using p-Nitrophenyl phosphate disodium salt (PNPP; Sigma Aldrich, St. Louis, MO) substrate solution to detect any presence of phosphatase.
Preparation • 1. Thaw 2 pieces of frozen porcine skin • a. Punch out as many skin discs and mount in holders • 2. Label cuvettes (3 for each chemical) Procedure • 1. Add 500 μL of test chemical to holder; incubate at room temperate for 30 minutes • 2. After 30 minutes, add 2 mL of PBS-Azide to both the holder containing the test chemical; forcefully pipette and re-pipette 10 times • 3. From the holder, aliquot 400 μL into 3 cuvettes; forcefully pipette and re-pipette 3 times before dispensing into cuvettes Reading Results • 1. Measure at OD300 for all cuvettes
Skin corrosion by GHS Category 1 dermal corrosive chemicals results in the disintegration of the epidermis into the dermis.

[9] = test system: alkaline phosphatase; experiment: Alkaline phosphatase experiment, third week: with and without discs; format: biochemical; settings: 405 nm, 100 μL chemical, 18 hours 37° C., PNPP 1 hour
Source text: Our next study focused on an in vitro method of detecting the potential of dermal corrosives to inhibit nonspecific phosphatases that may be released from the skin. We decided to test pure […] instead of relying on endogenous skin phosphatase. Alkaline phosphatase (Sigma Aldrich, St. Louis, MO) was purchased and suspended to make the reaction reagent (10,000 units). […] We note that the ratio used was 0.1 g/ml or 10% chemical—which is far in excess of any pharmaceutical applications. We further note that pharmaceutical enzyme inhibition tests, studies an use involve highly specific active site binding and these assays are conducted at ratios of micrograms-femtograms per ml. These studies are done at these ranges because these are the realistic concentrations for drug applications and therapeutics. […] So when a 50 Kg human consumes the tables, the tissues will be exposed at a 5 mg/50 kg=0.1 mg/kg=0.0000001 g/ml.
Next two quantitative methods were evaluated: 1) using the discs parts from our OptiSafe™ test method and 2) directly into the 24-well plate.
Preparation • 1. Alkaline phosphatase reaction reagent • a. Take 1 vial of AP, add 1 mL of PBS, mix by pipette/re-pipette 10 times • b. To a 50 mL conical tube, add 1 mL of the AP solution prepared above and 40 mL of PBS • 2. Prepare two 24-well plates (1 with discs, 1 without discs) • 3. […] Aliquot 200 μL PNPP and PBS Procedure • 1. Plate 1 (No Discs) • a. Add 1.25 mL from the prepared PBS-AP conical tube to each well (11 wells) • b. Add 100 μL of the test material to the well, mix with the same pipette tip, dispose and repeat for the rest of the test materials • c. Wrap the plate in saran wrap and place into the container • 2. Plate 2 (Discs) • a. Configure the 11 discs in the plate so the plate cover is stable • b. Add 1.25 mL from the prepared PBS-AP conical tube to each well (11 wells) • c. Add 100 μL of the test material to the center of the disc and repeat for the rest of the test materials • d. Put the plate cover on and place into the container • 3. […] Incubate for 1 hour Reading Results • 1. Measure at OD405

[10] = test system: alkaline phosphatase; format: biochemical; remark: listed apart in the source
Description: For the new study, the alkaline phosphatase was suspended in phosphate buffered saline (PBS) to make the reaction reagent. Then, 100 μL of the test chemical is added directly into the corresponding wells on a 24-well plate with 1.25 mL of alkaline phosphatase reaction reagent already aliquoted.
Preparation • 1. Alkaline phosphatase reaction reagent • a. Take 1 vial of AP, add 1 mL of PBS, mix by pipette/re-pipette 10 times • b. To a 50 mL conical tube, add 1 mL of the AP solution prepared above and 40 mL of PBS • 2. Prepare two 24-well plates • 3. […] Aliquot with 200 μL PNPP and PBS • 4. Prepare glass vials Repeat Procedure from 1-3-23 • 1. 24-well plate • a. Add 1.25 mL from the prepared PBS-AP conical tube to each well (11 wells) • b. Add 100 μL of the test material to the well, mix with the same pipette tip, dispose and repeat for the rest of the test materials • c. Wrap the plate in saran wrap and place into the container • 2. […] To the prepared 96-well plate with 200 μL PNPP or PBS, add 20 μL from the 24-well plate • 4. Incubate for 1 hour • 5. […] 24-well plate • a. Add 1.25 mL from the prepared PBS-AP conical tube to each well (11 wells) • b. Add 100 μL of the test material to the well, mix with the same pipette tip, dispose and repeat for the rest of the test materials • c. After 10 minutes, mix each well • 2. To the prepared 96-well plate with 200 μL PNPP or PBS, add 20 μL from the 24-well plate • 3. […] Aliquot 200 μL from the 24-well plate to glass vials filled with 2 mL of PNPP

[11] = cited from earlier work
[12] = chemical lists of the experiments
[13] = 10 minutes test chemical exposure

Structure (SMILES): CSc1ccc(C=O)cc1
- A2 - Results AVG [1]: 3.333
- A2 - Results R1 [1]: 3.379
- A2 - Results R3 [1]: 3.266
- OD405 reading, 1:100 ethanol solvent condition, 37° C. ([2]; 37° C.): 0.857
- OD405 reading, 1:100 ethanol solvent condition, room temperature ([2]; room temperature): 2.243

Structure (SMILES): Cc1ccc(C(C)C)cc1O
- OD405 readings, original alkaline phosphatase 1:100 (FIG. 6D) [3]: 0.991 and 0.974 and 1.167
- A2 - Results AVG [1]: 2.597
- A2 - Results R1 [1]: 2.462
- A2 - Results R3 [1]: 2.772
- OD405 readings, buffered saline alkaline phosphatase reaction reagent, glass vials (FIG. 11B) [4]: 1.990 and 1.926
- OD405 readings, ethanol alkaline phosphatase reaction reagent, glass vials (FIG. 11D) [4]: 3.444 and 3.465 and 3.398
- in vivo GHS [5, 12]: Cat. 1B/1C

Structure (SMILES): ClCCCCBr [1-Bromo-4-chlorobutane]
- OD405 reading, ethanol solvent, 10 μL dose, 30-minute PNPP (FIG. 7A) ([6]; 10 μL into 90 μL): 3.349
- OD405 reading, ethanol solvent, 50 μL dose, 30-minute PNPP (FIG. 7A) ([6]; 50 μL into 50 μL): 0.700
- A2 - Results AVG [1]: 2.849
- A2 - Results R1 [1]: 2.948
- A2 - Results R3 [1]: 2.869
- OD405 reading, 1:1000 ethanol solvent condition (FIG. 9B) ([2]; 4-hour exposure, 1-hour PNPP): 0.799

Structure (SMILES): CN(C)CCCNCCCN [Dimethyldipropylenetriamine]
- OD190 [7]: >3A
- percent of phosphatase measured (optical density compared to the naïve condition), average ([8]; average of two readings): 20.6%
- percent of phosphatase measured (optical density compared to the naïve condition) ([8]; single readings): 23.5% and 17.7%
- raw optical density reading (PNPP), with discs (FIG. 3A) ([9]; 1.25 mL reaction reagent (10,000 units)): 0.152 and 0.159 and 0.140
- raw optical density reading (PNPP), without discs (FIG. 3B) ([9]; 1.25 mL reaction reagent): 0.138 and 0.176 and 0.133
- raw optical density reading (PNPP), repeat without discs (FIG. 4) ([10]; 405 nm, 18 hours 37° C. exposure, PNPP 1 hour): 0.132 and 0.128 and 0.127
- 10-minute PNPP incubation readings (FIG. 5A) [10, 13]: 3.500
- 18-hour PNPP incubation readings (FIG. 5D) [10, 13]: 0.110
- A2 - Results AVG [1]: 0.117
- A2 - Results R1 [1]: 0.119
- A2 - Results R3 [1]: 0.114
- Corrosive ([5]; Yes/No): Yes
- in vivo GHS ([5]; Tables 1A-1C and 2): Cat. 1A
- in vivo GHS [5, 12]: Cat. 1A

Structure (SMILES): CC(C)N(C)C [Dimethylisopropylamine]
- OD405 readings, original alkaline phosphatase 1:100 (FIG. 6D) [3]: 3.466 and 3.502
- A2 - Results AVG [1]: 0.244
- A2 - Results R1 [1]: 0.226
- A2 - Results R3 [1]: 0.295
- OD405 readings, buffered saline alkaline phosphatase reaction reagent, glass vials (FIG. 11B) [4]: 3.354 and 3.466 and 3.502
- OD405 readings, ethanol alkaline phosphatase reaction reagent, glass vials (FIG. 11D) [4]: 2.926 and 2.922 and 2.852
- in vivo GHS [5, 12]: Cat. 1B/1C
- solubility with water [11]: mostly insoluble with water

Structure (SMILES): CCCCCCCC(=O)O [Octanoic Acid]
- OD405 readings, original alkaline phosphatase 1:100 (FIG. 6D) [3]: 3.462 and 3.491 and 3.333
- A2 - Results AVG [1]: 2.342
- A2 - Results R1 [1]: 2.12
- A2 - Results R3 [1]: 2.129
- OD405 readings, buffered saline alkaline phosphatase reaction reagent, glass vials (FIG. 11B) [4]: 1.427 and 1.415 and 1.416
- OD405 readings, ethanol alkaline phosphatase reaction reagent, glass vials (FIG. 11D) [4]: 3.283 and 3.408 and 3.220

Structure (SMILES): [K+].[OH-] [Potassium hydroxide (10%), Potassium hydroxide]
- raw optical density reading (PNPP), repeat without discs (FIG. 4) [10]: 0.123 and 0.124
- A2 - Results AVG [1]: 0.108
- A2 - Results R1 [1]: 0.107
- A2 - Results R3 [1]: 0.108

Structure (SMILES): CCCCCCCN [n-Heptylamine]
- OD405 readings, original alkaline phosphatase 1:100 (FIG. 6D) [3]: 3.244 and 3.057 and 3.152
- A2 - Results AVG [1]: 0.175
- A2 - Results R1 [1]: 0.170
- A2 - Results R3 [1]: 0.193
- in vivo GHS [5, 12]: Cat. 1B/1C
- solubility with water [11]: mostly insoluble with water
